Test results from ChEMBL document CHEMBL1126923, “Novel inhibitors of prolyl 4-hydroxylase. 5. The intriguing structure-activity relationships seen with 2,2'-bipyridine and its 5,5'-dicarboxylic acid derivatives” (J Med Chem, 1993).

Columns and labels:
[1] = tested on: Prolyl 4-hydroxylase (Gallus gallus); assay: Inhibition of prolyl 4-hydroxylase by chromatographic determination of [14C]-succinic acid on ion-exchange minicolumna at 50 ug/mL
[2] = tested on: Prolyl 4-hydroxylase (Gallus gallus); assay: Inhibition of prolyl 4-hydroxylase by chromatographic determination of [14C]-succinic acid on ion-exchange minicolumna at 100 ug/mL

## CCOc1ccc(NC(=O)c2ccc(-c3ccccn3)nc2)cc1
[1]
  inhibition: 13%

## CCOc1ccc(NC(=O)c2ccc(-c3ccc(C(=O)Nc4ccc(OCC)cc4)cn3)nc2)cc1
[2]
  inhibition: 13%
